This is an account of results in patent US9365584B2, “Thieno [2,3-B] pyridinedione activators of AMPK and therapeutic uses thereof” (Poxel, priority 2009, dated 2016).

The test relates to AMPK. Put plainly: AMPK enzyme activity assay (Delfia technology, AMARA peptide substrate). Format: biochemical. The conditions noted are these: compound at 30 μM vs AMP at 200 μM. An outline of the steps: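 Value is the ratio of compound (30 μM) to AMP (200 μM) response, each as % of basal control. Phosphorylation of the AMARA peptide after AMPK addition was read by Delfia with an anti-phosphoserine antibody.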

For the compound `O=C1Nc2scc(-c3cccc(O)c3)c2C(=O)C1(F)c1ccccc1` (stereo not drawn) [No 204, 5-fluoro-3-(3-hydroxyphenyl)-5-phenyl-7H-thieno[2,3-b]pyridine-4,6-dione], the “Activity: Ratio between the % of control (basal activity) of compound of formula (1) at 30 μM and the % of control (basal activity) of AMP (natural substrate) at 200 μM” value (“Activity: Ratio between the % of control” below) is given as “C (C≧75%)”.

For `COc1cccc(-c2csc3c2C(=O)C(F)(c2ccccc2)C(=O)N3)c1` (stereo not drawn) [No 205, 5-fluoro-3-(3-methoxyphenyl)-5-phenyl-7H-thieno[2,3-b]pyridine-4,6-dione], the “Activity: Ratio between the % of control” value is recorded as “B (50%≦B<75%)”. Consider `COc1cccc(-c2c(F)sc3c2C(=O)C(F)(c2ccccc2)C(=O)N3)c1` (stereo not drawn) [No 206, 2,5-difluoro-3-(3-methoxyphenyl)-5-phenyl-7H-thieno[2,3-b]pyridine-4,6-dione], for which the “Activity: Ratio between the % of control” value is recorded as “C (C≧75%)”.

Turning to `COc1ccccc1C1(F)C(=O)Nc2scc(-c3ccccc3)c2C1=O` (stereo not drawn) [No 207, 5-fluoro-5-(2-methoxyphenyl)-3-phenyl-7H-thieno[2,3-b]pyridine-4,6-dione], the “Activity: Ratio between the % of control” value is given as “A (0%<A<50%)”.

Turning to `O=C1Nc2scc(-c3ccncc3)c2C(=O)C1(F)c1ccccc1` (stereo not drawn) [No 208, 5-fluoro-5-phenyl-3-(4-pyridyl)-7H-thieno[2,3-b]pyridine-4,6-dione], the “Activity: Ratio between the % of control” value was “A (0%<A<50%)”. Regarding `Cc1cccc(C2(F)C(=O)Nc3sc(Cl)c(-c4cccc(F)c4)c3C2=O)c1` (stereo not drawn) [No 210, 2-chloro-5-fluoro-3-(3-fluorophenyl)-5-(m-tolyl)-7H-thieno[2,3-b]pyridine-4,6-dione], the “Activity: Ratio between the % of control” value is given as “C (C≧75%)”. Consider `N#Cc1cccc(C2(F)C(=O)Nc3sc(Cl)c(-c4cccc(F)c4)c3C2=O)c1` (stereo not drawn) [No 211, 3-[2-chloro-5-fluoro-3-(3-fluorophenyl)-4,6-dioxo-7H-thieno[2,3-b]pyridin-5-yl]benzonitrile], for which the “Activity: Ratio between the % of control” value was “C (C≧75%)”.

For `O=C1Nc2sc(Cl)c(-c3cccc(F)c3)c2C(=O)C1(F)c1cccnc1` (stereo not drawn) [No 212, 2-chloro-5-fluoro-3-(3-fluorophenyl)-5-(3-pyridyl)-7H-thieno[2,3-b]pyridine-4,6-dione], the “Activity: Ratio between the % of control” value was “C (C≧75%)”. On to `Cc1cccc(-c2c(Cl)sc3c2C(=O)C(F)(c2ccccc2)C(=O)N3)c1O` (stereo not drawn) [No 213, 2-chloro-5-fluoro-3-(2-hydroxy-3-methyl-phenyl)-5-phenyl-7H-thieno[2,3-b]pyridine-4,6-dione], for which the “Activity: Ratio between the % of control” value was “C (C≧75%)”. As to `O=C1Nc2scc(-c3cccnc3)c2C(=O)C1(F)c1ccccc1` (stereo not drawn) [No 214, 5-fluoro-5-phenyl-3-(3-pyridyl)-7H-thieno[2,3-b]pyridine-4,6-dione], the “Activity: Ratio between the % of control” value is on record as “A (0%<A<50%)”.

Consider `O=C1Nc2sc(Cl)c(-c3ccc(F)cc3O)c2C(=O)C1(F)c1cccc(F)c1` (stereo not drawn) [No 215, 2-chloro-5-fluoro-3-(4-fluoro-2-hydroxy-phenyl)-5-(3-fluorophenyl)-7H-thieno[2,3-b]pyridine-4,6-dione], for which the “Activity: Ratio between the % of control” value is given as “C (C≧75%)”. `O=C1Nc2sc(Cl)c(-c3ccc(F)cc3O)c2C(=O)C1(Cl)c1ccccc1` (stereo not drawn) [No 216, 2,5-dichloro-3-(4-fluoro-2-hydroxy-phenyl)-5-phenyl-7H-thieno[2,3-b]pyridine-4,6-dione]: the “Activity: Ratio between the % of control” value was “C (C≧75%)”. To `Cc1ccc(-c2c(Cl)sc3c2C(=O)C(F)(c2cccc(C#N)c2)C(=O)N3)cc1C` (stereo not drawn) [No 217, 3-[2-chloro-3-(3,4-dimethylphenyl)-5-fluoro-4,6-dioxo-7H-thieno[2,3-b]pyridin-5-yl]benzonitrile] belongs “C (C≧75%)”. Take `CS(=O)(=O)c1ccc(C2(F)C(=O)Nc3sc(Cl)c(-c4ccc(F)cc4O)c3C2=O)cc1` (stereo not drawn) [No 218, 2-chloro-5-fluoro-3-(4-fluoro-2-hydroxy-phenyl)-5-(4-methylsulfonylphenyl)-7H-thieno[2,3-b]pyridine-4,6-dione]: the “Activity: Ratio between the % of control” value is “C (C≧75%)”.

As for `COc1ccc(C2(F)C(=O)Nc3sc(Cl)c(-c4ccc(F)cc4O)c3C2=O)cc1OC` (stereo not drawn) [No 219, 2-chloro-5-(3,4-dimethoxyphenyl)-5-fluoro-3-(4-fluoro-2-hydroxy-phenyl)-7H-thieno[2,3-b]pyridine-4,6-dione], the “Activity: Ratio between the % of control” value is “C (C≧75%)”.

In the case of `Cc1sc2c(c1-c1ccc(F)cc1O)C(=O)C(F)(c1ccccc1)C(=O)N2` (stereo not drawn) [No 220, 5-fluoro-3-(4-fluoro-2-hydroxy-phenyl)-2-methyl-5-phenyl-7H-thieno[2,3-b]pyridine-4,6-dione], the “Activity: Ratio between the % of control” value is listed as “B (50%≦B<75%)”.

As for `O=C1Nc2sc(Cl)c(-c3ccccc3)c2C(=O)C1(Cl)c1ccccc1` (stereo not drawn) [No 222, 2,5-dichloro-3,5-diphenyl-7H-thieno[2,3-b]pyridine-4,6-dione], the “Activity: Ratio between the % of control” value is “C (C≧75%)”. To `CCc1ccc(-c2c(Cl)sc3c2C(=O)C(F)(c2ccccc2)C(=O)N3)c(O)c1` (stereo not drawn) [No 223, 2-chloro-3-(4-ethyl-2-hydroxy-phenyl)-5-fluoro-5-phenyl-7H-thieno[2,3-b]pyridine-4,6-dione] belongs “C (C≧75%)”. For the compound `N#Cc1cccc(C2(F)C(=O)Nc3sc(Cl)c(-c4ccc(F)cc4O)c3C2=O)c1` (stereo not drawn) [No 224, 3-[2-chloro-5-fluoro-3-(4-fluoro-2-hydroxy-phenyl)-4,6-dioxo-7H-thieno[2,3-b]pyridin-5-yl]benzonitrile], the “Activity: Ratio between the % of control” value is “C (C≧75%)”.

For the compound `COc1ccc(C2(F)C(=O)Nc3sc(Cl)c(-c4ccc(F)cc4O)c3C2=O)cc1C` (stereo not drawn) [No 225, 2-chloro-5-fluoro-3-(4-fluoro-2-hydroxy-phenyl)-5-(4-methoxy-3-methyl-phenyl)-7H-thieno[2,3-b]pyridine-4,6-dione], the “Activity: Ratio between the % of control” value was “C (C≧75%)”. To `O=C1Nc2sc(Cl)c(-c3ccc(F)cc3O)c2C(=O)C1(F)c1ccsc1` (stereo not drawn) [No 226, 2-chloro-5-fluoro-3-(4-fluoro-2-hydroxy-phenyl)-5-(3-thienyl)-7H-thieno[2,3-b]pyridine-4,6-dione] belongs “C (C≧75%)”.
